Patent US10646484B2, “Methods to treat opioid use disorder” (Indivior UK Limited, priority 2017, dated 2020)

System: opioid-dependent subjects
Assay: Concentration-QT analysis pooled across clinical studies
Description: A concentration QT analysis was performed for the clinical studies conducted with Formulation D. Matching buprenorphine and norbuprenorphine plasma concentrations and 12-lead electrocardiograms (ECGs) were pooled across clinical studies conducted with Formulation D in opioid-dependent subjects. Concentration-QT models were developed to describe the effects of buprenorphine and norbuprenorphine on corrected QT (QTc) interval, after accounting for the effect of relevant concomitant medications and illicit drug use on heart rate and/or QT in opioid-dependent subjects. Data from the following studies were included in the analysis:
Stable doses of SUBUTEX® tablets ranged between 8 and 24 mg depending on the dose cohort.
Twenty subjects received SUBOXONE® film alone.
Subjects were inducted using SUBOXONE® film for 3 days, followed by 4- to 11-day SUBOXONE® film dose adjustment at doses ranging from 8 to 24 mg QD. SUBOXONE® film was tapered in subjects after amendment of study protocol (Day 1: 6 mg, Days 2 and 3: 4 mg, Days 4 and 5: 2 mg).
The following covariates were evaluated on alpha given their potential to affect heart rate: withdrawal symptoms (as measured by Clinical Opiate Withdrawal Scale (COWS)), clonidine and methocarbamol (used to treat withdrawal symptoms), cocaine, phencyclidine, cannabinoids, barbiturates, and methamphetamines (illicit drugs), amphetamines (taken for therapeutic, e.g., attention-deficit/hyperactivity disorder or illicit use), as well as albuterol (known to increase heart rate).
The following covariates were evaluated on QTcAbs: sex, age, opioids known to have an effect on QTc (methadone, oxycodone), opioids that may have an effect on QTc (hydrocodone, morphine, hydromorphone, oxymorphone, heroin, codeine), or opioids (as a general class, with exact type not recorded in CRF), benzodiazepines, barbiturates, triplicate vs single ECG readings, central vs non-centrally read ECGs, and Holter vs non-Holter. Covariates were selected using individual steps of backward elimination. The concentration-related slope was added and the model was refined. Bootstrap and visual predictive checks were conducted to evaluate model performance.
In addition, the bias-corrected two-sided 90% confidence interval of the Delta QTc distribution was determined using the boot package in R (boot( ) function), where an additional nonparametric bootstrap was performed. If the upper limit of the 90% confidence interval was <10 msec, then an effect of Formulation D on QTc was to be ruled out.

[1] = concentration-QT model covariate

Row | SMILES | change in QTc associated with concomitant or illicit drug (covariate on QTc) [1] | change in QTc associated with concomitant or illicit drug (covariate on QTc) (human, in vivo)
1 | COC(=O)[C@H]1[C@@H](OC(=O)c2ccccc2)C[C@@H]2CC[C@H]1N2C [cocaine] | +1.7 msec | –
2 | COc1ccc2c3c1O[C@H]1[C@@H](O)C=C[C@H]4[C@@H](C2)N(C)CC[C@@]341 [codeine] | +1.3 msec | –
3 | OCCOCCN1CCN(C(c2ccccc2)c2ccc(Cl)cc2)CC1 (stereo not drawn) [hydroxyzine] | – | +1.7 msec
4 | CCC(=O)C(CC(C)N(C)C)(c1ccccc1)c1ccccc1 (stereo not drawn) [methadone] | +6.1 msec | –
5 | COc1ccc2c3c1O[C@H]1C(=O)CC[C@@]4(O)[C@@H](C2)N(C)CC[C@]314 [oxycodone] | -1.5 ms | –
6 | c1ccc(C2(N3CCCCC3)CCCCC2)cc1 [phencyclidine] | +3.4 msec | –
